Experiment: Studies of glucosamine salts delivered by the transdermal delivery system
Description: In accordance with the present invention, the above-indicated studies have shown that the transdermal delivery system described above can be used for delivering, for example, any glucosamine salt such as glucosamine hydrochloride, glucosamine sulfate, glucosamine sulfate stabilized with sodium chloride or potassium chloride.

SMILES: N[C@H]1C(O)O[C@H](CO)[C@@H](O)[C@@H]1O.O=S(=O)(O)O.[Cl-].[K+] (stereo partly shown) [glucosamine sulfate potassium chloride]
- bioavailability of glucosamine in blood plasma and synovial fluid among glucosamine salts: maximal bioavailability

Reference: US20190021995A1, “FORMULATION FOR TREATMENT OF PERIPHERAL JOINTS, SPINAL JOINTS AND/OR EXTRACELLULAR MATRIX ELEMENTS OF CONNECTIVE TISSUE, METHOD OF MANUFACTURE AND USES” (priority 2015, published 2019)
